Experimental data as given in US11149037B2, “Pyrazole MAGL inhibitors” (H. Lundbeck A/S, priority 2017, dated 2021).

Experiments:
FAAH [1] = target: T1, FAAH (Mus musculus (Mouse), UniProt O08914); assay: In vitro competitive activity-based protein profiling, mouse proteomes (brain membrane fraction or cell lysates); format: biochemical; conditions: mouse proteome, read-out: FAAH % inh. 1 μM (mouse)
Summary of the method: (§1)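 Activity of MAGL and FAAH was quantified from fluorescent gel band intensities. Beforehand, inhibitors at several concentrations competed against subsequent probe labelling (FP-Rh, JW912 or HT-01) in species-matched proteomes, each step 30 min at 37° C.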

MAGL [2] = target: T2, MAGL (Mus musculus (Mouse), UniProt O35678); assay: as above; format: biochemical; conditions: mouse proteome, read-out: MAGL % inh. 1 μM (mouse)
Summary of the method: as §1

MAGL [3] = target: MAGL (Homo sapiens (Human), UniProt Q99685); assay: In vitro competitive activity-based protein profiling, human proteomes (prefrontal cortex or PC3 cell membrane fractions); format: biochemical; conditions: human proteome; for inhibition at 1 µM: read-out: MAGL % inh. 1 μM (human)
Summary of the method: as §1

FAAH [4] = target: FAAH (Homo sapiens (Human), UniProt O00519); assay: as above; format: biochemical; conditions: human proteome; for inhibition at 1 µM: read-out: FAAH % inh. 1 μM (human)
Summary of the method: as §1

FAAH [5] = target: T1, FAAH; assay: Mouse brain proteomes from inhibitor treated mice (oral gavage, sacrificed 4 h after administration); format: in vivo; conditions: 5 mg/kg oral gavage
Experimental: (§2) Preparation of Mouse Brain Proteomes from Inhibitor Treated Mice.
(§3) Inhibitors were administered to wild-type C57B1/6J by oral gavage in a vehicle of polyethylene glycol. Each animal was sacrificed 4 h following administration and brain proteomes were prepared and analyzed according to previously established methods (See Niphakis, M. J., et al. (2011) ACS Chem. Neurosci. and Long, J. Z., et al. Nat. Chem. Biol. 5:37-44).

MAGL [6] = target: T2, MAGL; assay: as above; format: in vivo; conditions: 5 mg/kg oral gavage
Experimental: as §2, §3

T2 sequence (O35678 whole entry): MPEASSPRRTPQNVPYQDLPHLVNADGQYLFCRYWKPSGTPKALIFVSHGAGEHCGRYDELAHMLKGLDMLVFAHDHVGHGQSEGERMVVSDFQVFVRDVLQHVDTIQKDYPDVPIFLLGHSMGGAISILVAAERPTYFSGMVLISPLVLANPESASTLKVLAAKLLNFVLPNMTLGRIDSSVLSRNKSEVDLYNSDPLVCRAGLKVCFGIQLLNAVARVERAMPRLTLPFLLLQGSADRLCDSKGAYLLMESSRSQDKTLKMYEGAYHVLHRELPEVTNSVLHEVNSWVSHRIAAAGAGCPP
Sequence of FAAH (Homo sapiens (Human), UniProt O00519) (O00519 whole entry): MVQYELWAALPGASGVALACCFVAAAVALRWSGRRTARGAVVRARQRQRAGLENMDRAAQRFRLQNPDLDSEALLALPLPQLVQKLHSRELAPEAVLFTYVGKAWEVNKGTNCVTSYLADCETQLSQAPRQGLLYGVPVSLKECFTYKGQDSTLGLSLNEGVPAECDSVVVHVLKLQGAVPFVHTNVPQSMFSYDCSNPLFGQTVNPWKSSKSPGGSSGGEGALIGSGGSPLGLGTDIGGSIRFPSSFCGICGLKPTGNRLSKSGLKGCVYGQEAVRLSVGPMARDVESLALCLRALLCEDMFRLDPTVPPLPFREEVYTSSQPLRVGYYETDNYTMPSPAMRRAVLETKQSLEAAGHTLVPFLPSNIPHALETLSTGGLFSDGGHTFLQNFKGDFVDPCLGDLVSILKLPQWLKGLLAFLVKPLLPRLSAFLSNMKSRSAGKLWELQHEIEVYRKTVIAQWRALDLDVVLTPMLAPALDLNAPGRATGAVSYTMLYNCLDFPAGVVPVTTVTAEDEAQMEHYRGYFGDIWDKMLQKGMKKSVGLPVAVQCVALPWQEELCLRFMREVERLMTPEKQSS
Sequence of MAGL (Homo sapiens (Human), UniProt Q99685) (Q99685 whole entry): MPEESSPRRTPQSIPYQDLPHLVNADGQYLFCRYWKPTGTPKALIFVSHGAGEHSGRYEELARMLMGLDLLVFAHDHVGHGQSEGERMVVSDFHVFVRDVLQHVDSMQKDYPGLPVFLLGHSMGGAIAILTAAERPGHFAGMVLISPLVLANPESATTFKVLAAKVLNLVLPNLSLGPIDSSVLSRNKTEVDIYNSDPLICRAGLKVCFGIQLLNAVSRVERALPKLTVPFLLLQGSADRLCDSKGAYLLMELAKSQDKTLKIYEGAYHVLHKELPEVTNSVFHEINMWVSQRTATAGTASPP
T1 sequence (O08914 whole entry): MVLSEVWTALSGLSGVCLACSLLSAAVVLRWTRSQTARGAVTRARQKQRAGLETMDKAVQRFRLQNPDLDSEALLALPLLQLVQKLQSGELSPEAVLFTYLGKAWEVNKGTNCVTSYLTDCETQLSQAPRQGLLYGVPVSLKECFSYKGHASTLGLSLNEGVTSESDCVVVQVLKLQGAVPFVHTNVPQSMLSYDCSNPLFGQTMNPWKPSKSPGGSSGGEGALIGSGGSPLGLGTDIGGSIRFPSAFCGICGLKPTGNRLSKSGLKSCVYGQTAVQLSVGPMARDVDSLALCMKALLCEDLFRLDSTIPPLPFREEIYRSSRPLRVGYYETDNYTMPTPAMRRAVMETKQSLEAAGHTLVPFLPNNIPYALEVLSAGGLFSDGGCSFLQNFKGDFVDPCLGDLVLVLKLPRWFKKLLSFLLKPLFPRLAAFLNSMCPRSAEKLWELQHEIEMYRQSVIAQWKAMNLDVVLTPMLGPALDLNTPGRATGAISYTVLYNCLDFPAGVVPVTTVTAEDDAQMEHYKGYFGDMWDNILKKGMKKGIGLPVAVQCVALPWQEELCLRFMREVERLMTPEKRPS

Row | inhibition at 1 µM (FAAH [1]) [%] | inhibition at 1 µM (MAGL [2]) [%] | inhibition at 1 µM (MAGL [3]) [%] | IC50 (MAGL [3]) [µM] | inhibition at 1 µM (FAAH [4]) [%] | IC50 (FAAH [4]) [µM] | SMILES | FAAH % inh. 5 mg/kg (mouse) (FAAH [5]) | MAGL % inh. 5 mg/kg (mouse) (MAGL [6])
1 | > 75 | > 75 | > 75 | < 0.1 | 25 to 50 | 1 to 10 | CC(=O)Nc1ccn(C(=O)N2CCC3(CCN(C(=O)c4cc5ccc(C(F)(F)F)cc5s4)C3)CC2)n1 [Example 154, N-(1-(2-(6-(Trifluoromethyl)benzo[b]thiophene-2-carbonyl)-2,8-diazaspiro[4.5]decane-8-carbonyl)-1H-pyrazol-3-yl)acetamide] | C (% inhibition is greater than or equal to 25% and less than 50%) | B (% inhibition is greater than or equal to 50% and less than 75%)
2 | 0 to 25 | > 75 | > 75 |  | 0 to 25 |  | C[C@@H]1CCCN1c1cc(CN2CCN(C(=O)n3ccc(NS(C)(=O)=O)n3)CC2)ccc1C(F)(F)F [Example 156, (R)-N-(1-(4-(3-(2-Methylpyrrolidin-1-yl)-4-(trifluoromethyl)benzyl)piperazine-1-carbonyl)-1H-pyrazol-3-yl)methanesulfonamide] | D (% inhibition is greater than or equal to 0% and less than 25%) | A (% inhibition is greater than or equal to 75%)
3 | 0 to 25 | > 75 | > 75 |  | 0 to 25 |  | CS(=O)(=O)Nc1ccn(C(=O)N2CCN(Cc3ccc(Cl)c(N4C[C@H]5C[C@@H]4CO5)c3)CC2)n1 [Example 157, N-(1-(4-(3-((1R,4R)-2-Oxa-5-azabicyclo[2.2.1]heptan-5-yl)-4-chlorobenzyl)piperazine-1-carbonyl)-1H-pyrazol-3-yl)methanesulfonamide] | D (% inhibition is greater than or equal to 0% and less than 25%) | D (% inhibition is greater than or equal to 0% and less than 25%)
4 | 0 to 25 | > 75 | > 75 |  | 0 to 25 |  | CS(=O)(=O)Nc1ccn(C(=O)N2CCN(Cc3ccc(Cl)c(N4CCO[C@@H]5CCC[C@@H]54)c3)CC2)n1 [Example 158, N-(1-(4-(4-Chloro-3-((4aS,7aR)-hexahydrocyclopenta[b][1,4]oxazin-4(4aH)-yl)benzyl)piperazine-1-carbonyl)-1H-pyrazol-3-yl)methanesulfonamide] | D (% inhibition is greater than or equal to 0% and less than 25%) | D (% inhibition is greater than or equal to 0% and less than 25%)
5 | 0 to 25 | > 75 | > 75 |  | 0 to 25 |  | CS(=O)(=O)Nc1ccn(C(=O)N2CCN(Cc3ccc(Cl)c(N4CCC5(CCOCC5)C4)c3)CC2)n1 [Example 159, N-(1-(4-(4-Chloro-3-(8-oxa-2-azaspiro[4.5]decan-2-yl)benzyl)piperazine-1-carbonyl)-1H-pyrazol-3-yl)methanesulfonamide] | D (% inhibition is greater than or equal to 0% and less than 25%) | D (% inhibition is greater than or equal to 0% and less than 25%)
6 | > 75 | > 75 | > 75 |  | 50 to 75 |  | CC(=O)Nc1ccn(C(=O)N2CC3CN(Cc4cc(N5CCCC5)cc(C(F)(F)F)c4)CC3C2)n1 (stereo not drawn) [Example 168, N-(1-(5-(3-(Pyrrolidin-1-yl)-5-(trifluoromethyl)benzyl)octahydropyrrolo[3,4-c]pyrrole-2-carbonyl)-1H-pyrazol-3-yl)acetamide] | A (% inhibition is greater than or equal to 75%) | A (% inhibition is greater than or equal to 75%)
7 | > 75 | > 75 | > 75 |  | 50 to 75 |  | CC(=O)Nc1ccn(C(=O)N2CC3CN(Cc4ccc(N5CCCC5)cc4Cl)CC3C2)n1 (stereo not drawn) [Example 169, N-(1-(5-(2-Chloro-4-(pyrrolidin-1-yl)benzyl)octahydropyrrolo[3,4-c]pyrrole-2-carbonyl)-1H-pyrazol-3-yl)acetamide] | B (% inhibition is greater than or equal to 50% and less than 75%) | B (% inhibition is greater than or equal to 50% and less than 75%)

The next lines start with the molecule.

Row | SMILES | inhibition at 1 µM (FAAH [1]) [%] | inhibition at 1 µM (MAGL [2]) [%] | inhibition at 1 µM (MAGL [3]) [%] | IC50 (MAGL [3]) [µM] | inhibition at 1 µM (FAAH [4]) [%] | IC50 (FAAH [4]) [µM] | FAAH % inh. 5 mg/kg (mouse) (FAAH [5]) | MAGL % inh. 5 mg/kg (mouse) (MAGL [6])
8 | C[C@H](c1ccc(Cl)c(N2CCC(F)CC2)c1)N1CCN(C(=O)n2ccc(NS(C)(=O)=O)n2)CC1 [Example 139, (R)-N-(1-(4-(1-(4-Chloro-3-(4-fluoropiperidin-1-yl)phenyl)ethyl)piperazine-1-carbonyl)-1H-pyrazol-3-yl)methanesulfonamide] | 0 to 25 | > 75 | > 75 | < 0.1 | 0 to 25 | 1 to 10 | D (% inhibition is greater than or equal to 0% and less than 25%) | D (% inhibition is greater than or equal to 0% and less than 25%)
9 | CC1CN(C(=O)n2ccc(NS(C)(=O)=O)n2)CCN1Cc1ccc(C(F)(F)F)c(N2CCC(F)CC2)c1 (stereo not drawn) [Example 141, N-(1-(4-(3-(4-Fluoropiperidin-1-yl)-4-(trifluoromethyl)benzyl)-3-methylpiperazine-1-carbonyl)-1H-pyrazol-3-yl)methanesulfonamide] | 0 to 25 | > 75 | > 75 |  | 0 to 25 |  | D (% inhibition is greater than or equal to 0% and less than 25%) | A (% inhibition is greater than or equal to 75%)
10 | C[C@H]1CN(C(=O)n2ccc(NS(C)(=O)=O)n2)CCN1Cc1ccc(Cl)c(N2CC3COCC3C2)c1 (stereo partly drawn) [Example 143, N-(1-((3S)-4-(4-Chloro-3-(tetrahydro-1H-furo[3,4-c]pyrrol-5(3H)-yl)benzyl)-3-methylpiperazine-1-carbonyl)-1H-pyrazol-3-yl)methanesulfonamide] | 0 to 25 | > 75 | > 75 |  | 0 to 25 |  | D (% inhibition is greater than or equal to 0% and less than 25%) | D (% inhibition is greater than or equal to 0% and less than 25%)
11 | C[C@H]1CN(C(=O)n2ccc(NS(C)(=O)=O)n2)CCN1Cc1ccc(Cl)c(N2CCC(F)CC2)c1 [Example 148, (S)-N-(1-(4-(4-Chloro-3-(4-fluoropiperidin-1-yl)benzyl)-3-methylpiperazine-1-carbonyl)-1H-pyrazol-3-yl)methanesulfonamide] | 0 to 25 | > 75 | > 75 |  | 0 to 25 |  | D (% inhibition is greater than or equal to 0% and less than 25%) | A (% inhibition is greater than or equal to 75%)
12 | CC(=O)Nc1ccn(C(=O)N2CC3CN(Cc4ccc(Cl)c(C(C)(C)O)c4)CC3C2)n1 (stereo not drawn) [Example 150, N-(1-(5-(4-Chloro-3-(2-hydroxypropan-2-yl)benzyl)octahydropyrrolo[3,4-c]pyrrole-2-carbonyl)-1H-pyrazol-3-yl)acetamide] | 0 to 25 | > 75 | > 75 | < 0.1 | 25 to 50 | 1 to 10 | D (% inhibition is greater than or equal to 0% and less than 25%) | D (% inhibition is greater than or equal to 0% and less than 25%)
